Among the data in patent publication US20240124417A1, “COMPOUNDS USEFUL AS IMMUNOMODULATORS” (Bristol-Myers Squibb Company, priority 2019, published 2024) are IC50 values, retold here.

The experiment addresses T1, PD-1/PD-L1 (Homo sapiens, UniProt Q9NZQ7).
T1 construct: TVMV protease site linker (C); made in house; host or cells: HEK293T cells
Briefly: PD-1/PD-L1 Homogenous Time-Resolved Fluorescence (HTRF) binding assay. The following applies: PD-L1-His 10 nM, PD-1-Ig 20 nM. From the text: The ability of the compounds of the invention to bind to PD-L1 was investigated using a PD-1/PD-L1 Homogenous Time-Resolved Fluorescence (HTRF) binding assay.
Homogenous Time-Resolved Fluorescence (HTRF) binding assay.
The interaction of PD-1 and PD-L1 can be assessed using soluble, purified preparations of the extracellular domains of the two proteins. The PD-1 and PD-L1 protein extracellular domains were expressed as fusion proteins with detection tags, for PD-1, the tag was the Fc portion of Immunoglobulin (PD-1-Ig) and for PD-L1 it was the 6 histidine motif (PD-L1-His). All binding studies were performed in an HTRF assay buffer consisting of dPBS supplemented with 0.1% […] bovine serum albumin and 0.05% (v/v) Tween-20. For the h/PD-L1-His binding assay, inhibitors were pre-incubated with PD-L1-His (10 nM final) for 15 m in 4 μl of assay buffer, followed by addition of PD-1-Ig (20 nM final) in 1 μl of assay buffer and further incubation for 15 m. HTRF detection was achieved using europium crypate-labeled anti-Ig (1 nM final) and allophycocyanin (APC) labeled anti-His (20 nM final). Antibodies were diluted in HTRF detection buffer and 5 μl was dispensed on top of the binding reaction. […] Additional binding assays were established between the human proteins PD-1-Ig/PD-L2-His (20 & 5 nM, respectively) and CD80-His/PD-L1-Ig (100 & 10 nM, respectively). […]
On the technique in general: TR-FRET usually uses a lanthanide donor and a delayed reading to cut background.

T1 sequence (Q9NZQ7 18-239): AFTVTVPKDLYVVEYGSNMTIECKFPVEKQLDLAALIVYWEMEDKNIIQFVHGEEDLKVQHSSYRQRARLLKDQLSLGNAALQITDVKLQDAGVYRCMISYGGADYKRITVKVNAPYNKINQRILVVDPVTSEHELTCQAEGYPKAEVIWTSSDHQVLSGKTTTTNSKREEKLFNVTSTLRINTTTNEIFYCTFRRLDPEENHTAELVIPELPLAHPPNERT

As to `Cc1c(COc2cc(OCc3cncc(C#N)c3)c(CN3CCCCC3c3cc[nH]n3)cc2Cl)cccc1-c1cccc(OCC2CCCN(C)C2)c1Cl` (stereo not drawn) [Example 1021, 5-((2-((2-(1H-Pyrazol-3-yl)piperidin-1-yl)methyl)-4-chloro-5-((2′-chloro-2-methyl-3′-((1-methyl-piperidin-3-yl)methoxy)-[1,1′-biphenyl]-3-yl)methoxy)phenoxy)methyl)-nicotinonitrile], the IC50 (in general, the concentration that gives 50% inhibition) was 1.8 nM. This lies in the single-digit nanomolar range.

On to `Cc1c(COc2cc(OCc3cncc(C#N)c3)c(CN3CCCCC3c3cnn(C)c3)cc2Cl)cccc1-c1cccc(OCC2CCCN(C)C2)c1Cl` (stereo not drawn) [Example 1022, 5-((4-Chloro-5-((2′-chloro-2-methyl-3′-((1-methylpiperidin-3-yl)methoxy)-[1,1′-biphenyl]-3-yl)methoxy)-2-((2-(1-methyl-1H-pyrazol-4-yl)piperidin-1-yl)methyl)phenoxy)-methyl)nicotinonitrile], for which the half-maximal inhibitory concentration (IC50) was determined as 1.3 nM.

As for `Cc1c(COc2cc(OCc3cncc(C#N)c3)c(CN3CCCC(c4cnn(C)c4)C3)cc2Cl)cccc1-c1cccc(OCC2CCCN(C)C2)c1Cl` (stereo not drawn) [Example 1023, 5-((4-Chloro-5-((2′-chloro-2-methyl-3′-((1-methylpiperidin-3-yl)methoxy)-[1,1′-biphenyl]-3-yl)methoxy)-2-((3-(1-methyl-1H-pyrazol-4-yl)piperidin-1-yl)methyl)-phenoxy)methyl)nicotinonitrile], the IC50 came to 0.2 nM.

`Cc1c(COc2cc(OCc3cncc(C#N)c3)c(CN3CCCC(c4ccn[nH]4)C3)cc2Cl)cccc1-c1cccc(OCC2CCCN(C)C2)c1Cl` (stereo not drawn) [Example 1024, 5-((2-((3-(1H-Pyrazol-5-yl)piperidin-1-yl)methyl)-4-chloro-5-((2′-chloro-2-methyl-3′-((1-methylpiperidin-3-yl)methoxy)-[1,1′-biphenyl]-3-yl)methoxy)phenoxy)methyl)-nicotinonitrile] came in with an IC50 of 0.7 nM.

Compound `Cc1c(COc2cc(OCc3cncc(C#N)c3)c(CN3CCCC3c3cn[nH]c3)cc2Cl)cccc1-c1cccc(OCC2CCCN(C)C2)c1Cl` (stereo not drawn) [Example 1025, 5-((2-((2-(1H-Pyrazol-4-yl)pyrrolidin-1-yl)methyl)-4-chloro-5-((2′-chloro-2-methyl-3′-((1-methylpiperidin-3-yl)methoxy)-[1,1′-biphenyl]-3-yl)methoxy)phenoxy)methyl)-nicotinonitrile] returned an IC50 of 0.5 nM.

`Cc1c(COc2cc(OCc3cncc(C#N)c3)c(CN3CCCC3c3ccn[nH]3)cc2Cl)cccc1-c1cccc(OCC2CCCN(C)C2)c1Cl` (stereo not drawn) [Example 1026, 5-((2-((2-(1H-Pyrazol-5-yl)pyrrolidin-1-yl)methyl)-4-chloro-5-((2′-chloro-2-methyl-3′-((1-methylpiperidin-3-yl)methoxy)-[1,1′-biphenyl]-3-yl)methoxy)phenoxy)methyl)-nicotinonitrile] showed an IC50 of 1.5 nM.

For `Cc1n[nH]c(C)c1C(NCc1cc(Cl)c(OCc2cccc(-c3cccc(OCC4CCCN(C)C4)c3Cl)c2C)cc1OCc1cncc(C#N)c1)C(=O)O` (stereo not drawn) [Example 1027, 2-((5-Chloro-4-((2′-chloro-2-methyl-3′-((1-methylpiperidin-3-yl)methoxy)-[1,1′-biphenyl]-3-yl)methoxy)-2-((5-cyanopyridin-3-yl)methoxy)benzyl)amino)-2-(3,5-dimethyl-1H-pyrazol-4-yl)acetic acid], the IC50 came to 1.1 nM. This IC50 and that of the compound before are within 1.5-fold of each other.

Regarding `Cc1c(COc2cc(OCc3cncc(C#N)c3)c(CNC(C(=O)O)c3cnn(C)c3)cc2Cl)cccc1-c1cccc(OCC2CCCN(C)C2)c1Cl` (stereo not drawn) [Example 1028, 2-((5-Chloro-4-((2′-chloro-2-methyl-3′-((1-methylpiperidin-3-yl)methoxy)-[1,1′-biphenyl]-3-yl)methoxy)-2-((5-cyanopyridin-3-yl)methoxy)benzyl)amino)-2-(1-methyl-1H-pyrazol-4-yl)acetic acid], the IC50 came to 1.9 nM.

In the case of `Cc1c(COc2cc(OCc3cncc(C#N)c3)c(CN3CCC4C(C3)C(CO)=NN4C)cc2Cl)cccc1-c1cccc(OCC2CCCN(C)C2)c1Cl` (stereo not drawn) [Example 1029, 5-((4-Chloro-5-((2′-chloro-2-methyl-3′-((1-methylpiperidin-3-yl)methoxy)-[1,1′-biphenyl]-3-yl)methoxy)-2-((3-(hydroxymethyl)-1-methyl-1,3a,4,6,7,7a-hexahydro-5H-pyrazolo[4,3-c]pyridin-5-yl)methyl)phenoxy)methyl)nicotinonitrile], the IC50 came out at 2 nM.

In the case of `Cc1c(COc2cc(OCc3cncc(C#N)c3)c(CN(C)C(C)c3nnn[nH]3)cc2Cl)cccc1-c1cccc(OCCCNC[C@H](O)CO)c1C` (stereo partly drawn) [Example 1030, 5-((2-(((1-(1H-Tetrazol-5-yl)ethyl)(methyl)amino)methyl)-4-chloro-5-((3′-(3-(((S)-2,3-dihydroxypropyl)amino)propoxy)-2,2′-dimethyl-[1,1′-biphenyl]-3-yl)methoxy)-phenoxy)methyl)nicotinonitrile], the IC50 is 0.2 nM.

For the compound `Cc1c(COc2cc(OCc3cncc(C#N)c3)c(CN3CCCCC3c3cn[nH]c3)cc2Cl)cccc1-c1cccc(OCCCNC[C@H](O)CO)c1Cl` (stereo partly drawn) [Example 1032, 5-((2-((2-(1H-Pyrazol-4-yl)piperidin-1-yl)methyl)-4-chloro-5-((2′-chloro-3′-(3-(((S)-2,3-dihydroxypropyl)amino)propoxy)-2-methyl-[1,1′-biphenyl]-3-yl)methoxy)phenoxy)-methyl)nicotinonitrile], the IC50 came to 0.8 nM.

For `Cc1c(COc2cc(OCc3cncc(C#N)c3)c(CN3CCC(c4nnn[nH]4)C3)cc2Cl)cccc1-c1cccc(OCCCNC[C@H](O)CO)c1Cl` (stereo partly drawn) [Example 1033, 5-((2-((3-(1H-Tetrazol-5-yl)pyrrolidin-1-yl)methyl)-4-chloro-5-((2′-chloro-3′-(3-(((S)-2,3-dihydroxypropyl)amino)propoxy)-2-methyl-[1,1′-biphenyl]-3-yl)methoxy)phenoxy)-methyl)nicotinonitrile], the IC50 is 2.1 nM.

`Cc1c(COc2cc(OCc3cncc(C#N)c3)c(CN(C)C(C)c3nnn[nH]3)cc2Cl)cccc1-c1cccc(OCCCNC[C@H](O)CO)c1Cl` (stereo partly drawn) [Example 1034, 5-((2-(((1-(1H-Tetrazol-5-yl)ethyl)(methyl)amino)methyl)-4-chloro-5-((2′-chloro-3′-(3-(((S)-2,3-dihydroxypropyl)amino)propoxy)-2-methyl-[1,1′-biphenyl]-3-yl)methoxy)-phenoxy)methyl)-nicotinonitrile] had an IC50 of 0.4 nM.

With `Cc1c(COc2cc(OCc3cncc(C#N)c3)c(CN(C)CC(C)c3nnn[nH]3)cc2Cl)cccc1-c1cccc(OCCCNC[C@H](O)CO)c1Cl` (stereo partly drawn) [Example 1035, 5-((2-(((2-(1H-Tetrazol-5-yl)propyl)(methyl)amino)methyl)-4-chloro-5-((2′-chloro-3′-(3-(((S)-2,3-dihydroxypropyl)amino)propoxy)-2-methyl-[1,1′-biphenyl]-3-yl)methoxy)-phenoxy)methyl)nicotinonitrile], the IC50 was determined as 1.3 nM.

Take `CC(=O)NC1CCN(CCCOc2cccc(-c3cccc(COc4cc(OCc5cncc(C#N)c5)c(CNc5nnn[nH]5)cc4Cl)c3C)c2C)CC1` [Example 1036, N-(1-(3-((3′-((4-(((1H-Tetrazol-5-yl)amino)methyl)-2-chloro-5-((5-cyanopyridin-3-yl)-methoxy)phenoxy)methyl)-2,2′-dimethyl-[1,1′-biphenyl]-3-yl)oxy)propyl)piperidin-4-yl)-acetamide]: the IC50 came to 4.2 nM.
